Measured values reported in patent US20240116985A1, “STAPLED PEPTIDES AND METHODS THEREOF” (priority 2020, published 2024).
pIC50: −log10 of the molar value. In brackets after ≈: the same amount, converted by molar mass. Like-named read-outs stand apart in the source and are kept apart here.

Assays:
[1] = CHI Log D procedure; format: physicochemical; conditions: for CHI Log D: pH 7.4
[2] = biological target: T1, full-length beta-Catenin (Uniprot ID P35222) (Homo sapiens, UniProt P35222); test: Fluorescence polarization IC50 (beta-catenin / 5FAM-TCF4 10-53 competition); format: binding
T1 construct: 10 nM full-length beta-Catenin (Uniprot ID P35222)
T1 sequence (P35222 1-781): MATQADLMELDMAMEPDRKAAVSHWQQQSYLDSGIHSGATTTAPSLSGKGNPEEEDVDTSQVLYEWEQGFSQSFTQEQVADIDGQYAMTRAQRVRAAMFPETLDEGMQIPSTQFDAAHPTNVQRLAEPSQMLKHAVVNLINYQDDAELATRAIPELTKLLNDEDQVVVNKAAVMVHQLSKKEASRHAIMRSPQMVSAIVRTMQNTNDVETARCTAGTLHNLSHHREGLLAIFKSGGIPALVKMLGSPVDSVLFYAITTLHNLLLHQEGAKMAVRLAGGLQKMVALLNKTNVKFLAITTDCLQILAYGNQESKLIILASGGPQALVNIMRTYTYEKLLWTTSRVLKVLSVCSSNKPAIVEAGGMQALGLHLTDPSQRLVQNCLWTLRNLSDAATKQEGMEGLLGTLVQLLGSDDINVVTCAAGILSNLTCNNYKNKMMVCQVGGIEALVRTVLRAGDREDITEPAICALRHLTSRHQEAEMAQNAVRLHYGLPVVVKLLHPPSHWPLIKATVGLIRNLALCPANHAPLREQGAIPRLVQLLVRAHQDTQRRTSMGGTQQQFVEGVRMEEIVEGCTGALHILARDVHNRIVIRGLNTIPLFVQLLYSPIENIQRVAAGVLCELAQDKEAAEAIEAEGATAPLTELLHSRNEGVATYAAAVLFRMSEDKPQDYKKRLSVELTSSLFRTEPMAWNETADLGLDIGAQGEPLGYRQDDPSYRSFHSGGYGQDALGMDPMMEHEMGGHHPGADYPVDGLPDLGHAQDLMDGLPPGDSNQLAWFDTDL

[3] = Solubility in PBS; format: physicochemical
Outline: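 Read-out is the HPLC peak area of the supernatant from ultracentrifuged PBS solution, scaled against a 50 μM peptide DMSO injection; value reported as [(PBS area)/(DMSO area)]*50 uM.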

[4] = fluorescence polarization, read-out: beta-Catenin FP IC50

| SMILES | chromatographic logD ([1]; pH 7.4, CHI Log D) | pIC50 [2, 4] | Solubility [3] [µM] | CHI Log D [1] | pIC50 ([2]; read-out: FP EC50) | chromatographic logD ([1]; pH 7.4, LogD) | pIC50 ([2]; read-out: bCat FP IC50) | Solubility ([3]; Solubility (uM)) [µM] |
| --- | --- | --- | --- | --- | --- | --- | --- | --- |
| CC[C@H](C)[C@@H]1NC(=O)[C@H](CC(=O)O)NC(=O)[C@]2(CC=CCCCC3(CCCC=CCCCCCC[C@@](C)(C(=O)N[C@@H](Cc4ccccc4)C(=O)N[C@@H](Cc4csc5ccccc45)C(=O)N[C@@H](CCC(N)=O)C(N)=O)NC(=O)[C@H](CCC(N)=O)NC(=O)[C@H](Cc4ccccc4)NC(=O)[C@H](C)NC(=O)[C@H](C)NC(=O)[C@H](CCC(N)=O)NC(=O)[C@H](CC(=O)O)NC3=O)NC1=O)CCCN2C(C)=O (stereo partly drawn) [I-603, Ac-PL3-Asp-Ile-B5-Asp-Gln-Ala-Ala-Phe-Gln-S8-Phe-BztA-Gln-NH2] | 2.62 | 6.41 | 10 (≈ 18.8 µg/mL) | – | – | – | – | – |
| CC[C@H](C)[C@@H]1NC(=O)[C@H](CC(=O)O)NC(=O)[C@]2(CC=CCCCC3(CCCC=CCCCCCC[C@@](C)(C(=O)N[C@@H](Cc4ccccc4)C(=O)N[C@@H](Cc4csc5ccccc45)C(=O)N[C@@H](CCC(N)=O)C(N)=O)NC(=O)[C@H](CCC(N)=O)NC(=O)[C@H](Cc4ccccc4)NC(=O)[C@H](C)NC(=O)[C@H](C)NC(=O)[C@H](CCCNC(N)=O)NC(=O)[C@H](CC(=O)O)NC3=O)NC1=O)CCCN2C(C)=O (stereo partly drawn) [I-604, Ac-PL3-Asp-Ile-B5-Asp-Cit-Ala-Ala-Phe-Gln-S8-Phe-BztA-Gln-NH2] | – | 6.16 | 10 (≈ 19.1 µg/mL) | 2.609 | 6.16 | – | – | – |
| CC[C@H](C)[C@@H]1NC(=O)[C@H](CC(=O)O)NC(=O)[C@]2(CC=CCCCC3(CCCC=CCCCCCC[C@@](C)(C(=O)N[C@@H](Cc4ccccc4)C(=O)N[C@@H](Cc4csc5ccccc45)C(=O)N[C@@H](CCC(N)=O)C(N)=O)NC(=O)[C@H](CCC(N)=O)NC(=O)[C@H](Cc4ccccc4)NC(=O)[C@H](C)NC(=O)[C@H](C)NC(=O)[C@H](CCCNC(N)=O)NC(=O)[C@H](CC(=O)O)NC3=O)NC1=O)CCCN2C(C)=O (stereo partly drawn) [I-605, Ac-PL3-Asp-Ile-B5-Asp-Cit-Ala-Ala-Phe-Gln-S8-Phe-BztA-Gln-NH2] | – | 6.20 | 10 (≈ 19.1 µg/mL) | 2.617 | 6.20 | – | – | – |
| CC[C@H](C)[C@@H]1NC(=O)[C@H](CC(=O)O)NC(=O)[C@]2(CC=CCCCC3(CCCC=CCCCCCC[C@@](C)(C(=O)N[C@@H](Cc4ccccc4)C(=O)N[C@@H](Cc4csc5ccccc45)C(=O)N[C@@H](CCC(N)=O)C(N)=O)NC(=O)[C@H](CCC(N)=O)NC(=O)[C@H](Cc4ccccc4)NC(=O)[C@H](C)NC(=O)[C@H](C)NC(=O)[C@H](Cc4ccc(C(=O)O)cc4)NC(=O)[C@H](CC(=O)O)NC3=O)NC1=O)CCCN2C(C)=O (stereo partly drawn) [I-606, Ac-PL3-Asp-Ile-B5-Asp-4COOHF-Ala-Ala-Phe-Gln-S8-Phe-BztA-Gln-NH2] | – | 6.54 | 49 (≈ 95.3 µg/mL) | 2.412 | 6.54 | – | – | – |
| CC[C@H](C)[C@@H]1NC(=O)[C@H](CC(=O)O)NC(=O)[C@]2(CC=CCCCC3(CCCC=CCCCCCC[C@@](C)(C(=O)N[C@@H](Cc4ccccc4)C(=O)N[C@@H](Cc4csc5ccccc45)C(=O)N[C@@H](CCC(N)=O)C(N)=O)NC(=O)[C@H](CCC(N)=O)NC(=O)[C@H](Cc4ccccc4)NC(=O)[C@H](C)NC(=O)[C@H](C)NC(=O)[C@H](CCCC(=O)O)NC(=O)[C@H](CC(=O)O)NC3=O)NC1=O)CCCN2C(C)=O (stereo partly drawn) [I-612, Ac-PL3-Asp-Ile-B5-Asp-Aad-Ala-Ala-Phe-Gln-S8-Phe-BztA-Gln-NH2] | 2.41 | – | 49 (≈ 93 µg/mL) | – | – | 2.4 | 7.19 | > 25 |
| CC[C@H](C)[C@@H]1NC(=O)[C@H](CC(=O)O)NC(=O)[C@]2(CC=CCCCC3(CCCC=CCCCCCC[C@@](C)(C(=O)N[C@@H](Cc4ccccc4)C(=O)N[C@@H](Cc4csc5ccccc45)C(=O)N[C@@H](CCC(N)=O)C(N)=O)NC(=O)[C@H](CCC(N)=O)NC(=O)[C@H](Cc4ccccc4)NC(=O)[C@H](C)NC(=O)[C@H](C)NC(=O)[C@H](CCCNC(=N)N)NC(=O)[C@H](CC(=O)O)NC3=O)NC1=O)CCCN2C(C)=O (stereo partly drawn) [I-613, Ac-PL3-Asp-Ile-B5-Asp-Arg-Ala-Ala-Phe-Gln-S8-Phe-BztA-Gln-NH2] | – | 5.79 | 10 (≈ 19.1 µg/mL) | 2.781 | 5.79 | – | – | – |
| CC[C@H](C)[C@@H]1NC(=O)[C@H](CC(=O)O)NC(=O)[C@]2(CC=CCCCC3(CCCC=CCCCCCC[C@@](C)(C(=O)N[C@@H](Cc4ccccc4)C(=O)N[C@@H](Cc4csc5ccccc45)C(=O)N[C@@H](CCC(N)=O)C(N)=O)NC(=O)[C@H](CCC(N)=O)NC(=O)[C@H](Cc4ccccc4)NC(=O)[C@H](C)NC(=O)[C@H](C)NC(=O)[C@H](CCCNC(=N)N)NC(=O)[C@H](CC(=O)O)NC3=O)NC1=O)CCCN2C(C)=O (stereo partly drawn) [I-614, Ac-PL3-Asp-Ile-B5-Asp-Arg-Ala-Ala-Phe-Gln-S8-Phe-BztA-Gln-NH2] | – | 5.94 | 10 (≈ 19.1 µg/mL) | 2.801 | 5.94 | – | – | – |
| CC(=O)N1CCC[C@]12CC=CCCCC1(CCCC=CCCCCCC[C@@](C)(C(=O)N[C@@H](Cc3ccccc3)C(=O)N[C@@H](Cc3csc4ccccc34)C(=O)N[C@@H](Cc3c[nH]cn3)C(N)=O)NC(=O)[C@H]([C@@H](C)O)NC(=O)[C@H](Cc3ccccc3)NC(=O)[C@H](C)NC(=O)[C@H](C)NC(=O)[C@H](CCC(=O)O)NC(=O)[C@H](CC(=O)O)NC1=O)NC(=O)[C@H](CC(C)C)NC(=O)[C@H](CC(=O)O)NC2=O (stereo partly drawn) [I-617, Ac-PL3-Asp-Leu-B5-Asp-Glu-Ala-Ala-Phe-Thr-S8-Phe-BztA-His-NH2] | – | 6.60 | 10 (≈ 18.7 µg/mL) | 2.549 | 6.60 | – | – | – |

More lines, now with the values ahead:

| chromatographic logD ([1]; pH 7.4, CHI Log D) | pIC50 [2, 4] | Solubility [3] [µM] | CHI Log D [1] | pIC50 ([2]; read-out: FP EC50) | chromatographic logD ([1]; pH 7.4, LogD) | pIC50 ([2]; read-out: bCat FP IC50) | Solubility ([3]; Solubility (uM)) [µM] | SMILES |
| --- | --- | --- | --- | --- | --- | --- | --- | --- |
| – | 6.60 | 48 (≈ 93.4 µg/mL) | 2.416 | 6.60 | – | – | – | CC[C@H](C)[C@@H]1NC(=O)[C@H](CC(=O)O)NC(=O)[C@]2(CC=CCCCC3(CCCC=CCCCCCC[C@@](C)(C(=O)N[C@@H](Cc4ccccc4)C(=O)N[C@@H](Cc4csc5ccccc45)C(=O)N[C@@H](CCC(N)=O)C(N)=O)NC(=O)[C@H](CCC(N)=O)NC(=O)[C@H](Cc4ccccc4)NC(=O)[C@H](C)NC(=O)[C@H](C)NC(=O)[C@H](Cc4ccc(C(=O)O)cc4)NC(=O)[C@H](CC(=O)O)NC3=O)NC1=O)CCCN2C(C)=O (stereo partly drawn) [I-607, Ac-PL3-Asp-Ile-B5-Asp-4COOHF-Ala-Ala-Phe-Gln-S8-Phe-BztA-Gln-NH2] |
| 2.83 | 7.30 | 10 (≈ 19.2 µg/mL) | – | – | – | – | – | CC(=O)N1CCC[C@]12CC=CCCCC1(CCCC=CCCCCCC[C@@](C)(C(=O)N[C@@H](Cc3ccccc3)C(=O)N[C@@H](Cc3csc4ccccc34)C(=O)N[C@@H](Cc3c[nH]cn3)C(N)=O)NC(=O)[C@H](CC(N)=O)NC(=O)[C@H](Cc3ccccc3)NC(=O)[C@H](C)NC(=O)[C@H](C)NC(=O)[C@H](CCC(=O)O)NC(=O)[C@H](CC(=O)O)NC1=O)NC(=O)[C@H](CC1CCCCC1)NC(=O)[C@H](CC(=O)O)NC2=O (stereo partly drawn) [I-615, Ac-PL3-Asp-Cha-B5-Asp-Glu-Ala-Ala-Phe-Asn-S8-Phe-BztA-His-NH2] |
| 2.41 | 6.97 | 10 (≈ 19.2 µg/mL) | – | – | – | – | – | CC(=O)N1CCC[C@]12CC=CCCCC1(CCCC=CCCCCCC[C@@](C)(C(=O)N[C@@H](Cc3ccccc3)C(=O)N[C@@H](Cc3csc4ccccc34)C(=O)N[C@@H](Cc3c[nH]cn3)C(N)=O)NC(=O)[C@H](CCCNC(N)=O)NC(=O)[C@H](Cc3ccccc3)NC(=O)[C@H](C)NC(=O)[C@H](C)NC(=O)[C@H](CCC(=O)O)NC(=O)[C@H](CC(=O)O)NC1=O)NC(=O)[C@H](CC(C)C)NC(=O)[C@H](CC(=O)O)NC2=O (stereo partly drawn) [I-616, Ac-PL3-Asp-Leu-B5-Asp-Glu-Ala-Ala-Phe-Cit-S8-Phe-BztA-His-NH2] |
| – | 6.87 | 10 (≈ 18.7 µg/mL) | 2.617 | 6.87 | – | – | – | CC(=O)N1CCC[C@]12CC=CCCCC1(CCCC=CCCCCCC[C@@](C)(C(=O)N[C@@H](Cc3ccccc3)C(=O)N[C@@H](Cc3csc4ccccc34)C(=O)N[C@@H](Cc3c[nH]cn3)C(N)=O)NC(=O)[C@H]([C@@H](C)O)NC(=O)[C@H](Cc3ccccc3)NC(=O)[C@H](C)NC(=O)[C@H](C)NC(=O)[C@H](CCC(=O)O)NC(=O)[C@H](CC(=O)O)NC1=O)NC(=O)[C@H](CC(C)C)NC(=O)[C@H](CC(=O)O)NC2=O (stereo partly drawn) [I-618, Ac-PL3-Asp-Leu-B5-Asp-Glu-Ala-Ala-Phe-Thr-S8-Phe-BztA-His-NH2] |
| – | 7.36 | 47 (≈ 89.7 µg/mL) | 2.677 | 7.36 | – | – | – | CC(=O)N1CCC[C@]12CC=CCCCC1(CCCC=CCCCCCC[C@@](C)(C(=O)N[C@@H](Cc3ccccc3)C(=O)N[C@@H](Cc3csc4ccccc34)C(=O)N[C@@H](CCC(N)=O)C(N)=O)NC(=O)[C@H](CC(N)=O)NC(=O)[C@H](Cc3ccccc3)NC(=O)[C@H](C)NC(=O)[C@H](C)NC(=O)[C@H](CCC(=O)O)NC(=O)[C@H](CC(=O)O)NC1=O)NC(=O)[C@H](CC1CCCCC1)NC(=O)[C@H](CC(=O)O)NC2=O (stereo partly drawn) [I-619, Ac-PL3-Asp-Cha-B5-Asp-Glu-Ala-Ala-Phe-Asn-S8-Phe-BztA-Gln-NH2] |
